Measured values published in patent US20110230421A1, “FUSION PROTEINS OF APOPTIN-PROTEIN TR[…] OF CARBOXYL-TERMINUS OF EC-SOD” (priority 2008, published 2011).
Where two headings read alike, the source gives them in different places.

What was measured:
Lewis lung carcinoma = format: in vivo, mouse; settings: i.p. daily for 7-8 days, cyclophosphamide 20, Poly Arg-Apoptin 40, Apoptin-EC-SOD-PTD 10 mg/kgBW/day; for ratio of tumor inhibition: versus blank group mean tumor weight
Protocol: Four groups including a blank control, a positive control and a recombinant Apoptin-EC-SOD-PTD test group and a recombinant Poly Arg-Apoptin group were set for the experiment, and 8 animals were tested for each group. After inoculation of Lewis lung carcinoma cells, the blank control group was injected with saline water. Whereas, the positive control group was injected with cyclophosphamide solution (20 mg/kgBW/day). The two test groups were injected with the recombinant Apoptin-EC-SOD-PTD (10 mg/kgBW/day) which was purified, dialysed and sterile filtrated and recombinant Poly Arg-Apoptin (40 mg/kgBW/day), respectively.
1. Inoculation of carcinoma cell line: Six weeks old C57BU6 male mice with a weight of about 20 g were inoculated by armpit with 0.2 ml of Lewis lung carcinoma single cell suspension. After feeding for 3-4 days, tumor growth in the armpits of the mice was observed. Drug administration test would be initiated when the tumor grew to a size of several millimeters.
2. Administration: Drugs were administered by intraperitoneal injection, and the administrations were continued for 7-8 days. The mouse was weighed before daily administration.
3. Detecting ratio of tumor inhibition: After the drug administrations were stop for 2 days, the mice were sacrificed by breaking their necks. The tumor tissue was stripped from the body, weighted and calculated the ratio of tumor inhibition.
Ratio of tumor inhibition=(mean tumor weight of the blank group—mean tumor weight of the test group)/mean tumor weight of the blank group×100%.

HeLa cells = assay: MTT survival of HeLa cells cultured in vitro, 24 h; format: cell-based; settings: 100 μg/ml
Protocol: 1. The HeLa cells were cultured on the 96-well cell culture plate at 37° C. until the cell density reached to about 60%. Imidazole was removed from the recombinant Apoptin-EC-SOD-PTD sample isolated and purified after expressing by repeated dialysis. After sterile filtration, the protein was diluted by adding different volume of DMEM cell culture media. From the highest concentration of protein, the concentration was reduced by half dilution gradually until zero. And the solution without protein was used as the negative control; for each protein concentration group were selected 3-4 wells for parallel control. Meanwhile, the recombinant Apoptin protein isolated and purified from the prokaryotic expression system using the similar method was used as the control and conducted the same experimental operation. The two sets of samples were cultured for 24 h, drew culture media out and added the DMEM (100 μl) containing the 5 μg/ml of MTT, and then incubated for 4 hours at 37° C., drew the culture media out and added DMSO (100 μl) to dissolve the purple crystals, incubated for 10 min at 37° C. and measured its absorbance at 490 nm by a microplate reader. […]
2. Survival ratios of HeLa cells treated with different sample concentration were detected by MTT method.

O=P1(N(CCCl)CCCl)NCCCO1 (stereo not shown) [cyclophosphamide]
weight of the tumor tissue X ± SD (Lewis lung carcinoma; tumor stripped 2 days after last dose): 1.21 ± 0.119
ratio of tumor inhibition (Lewis lung carcinoma): 47.4%
ratio of tumor inhibition (Lewis lung carcinoma; listed as positive control): 47.4%

B1: recombinant Apoptin: recombinant Apoptin protein isolated and purified from the prokaryotic expression system, used as the control (protein)
chain: MNALQEDTPPGPSTVFRPPTSSRPLETPHCREIRIGIAGITITLSLCGCANARAPTLRSATADNSESTGFKNVPDLRTDQPKPPSKKRSCDPSEYRVSELKESLITTTPSRPRTAKRRIRL
modifications: Chicken anemia virus
notes: recombinant Apoptin protein isolated and purified from the prokaryotic expression system, used as the control
effect on the cell growth of HeLa (HeLa cells): not obvious
